Here are results for twelve compounds from patent publication US20240158418A1 (C4 Therapeutics, Inc., priority 2021, published 2024).

Each structure is given as a SMILES string.

What all share (assay type): cell-based
Assay [1] has as its target T1, EGFR L858R-T790M (Homo sapiens, UniProt P00533, L858R/T790M).
T1 construct: NCI-H1975 (harboring EGFR heterozygous L858R-T790M mutations); host or cells: NCI-H1975
Kind of assay: EGFR degradation, Total EGFR (L858R-specific) HTRF, NCI-H1975. To be noted: Table 9B; NCI-H1975 cells, 6 hours, Total EGFR HTRF; read-out: H1975 EGFR DC50. The method in brief:
(§1)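 FRET signal from HTRF kits measured phospho-EGFR at pY1068 or total EGFR after 6 h treatment at 37 °C. Compounds ran as 11-point half-log dilutions from 10 μM in duplicate, in cells in phenol red-free RPMI with 10% FBS. Concentrations giving 50% inhibition or degradation were reported as IC50 or DC50.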
(In TR-FRET formats the signal depends on donor and acceptor labels being close together.)

The target of assay [2] is T2, EGFR L858R-T790M-C797S (Homo sapiens, UniProt P00533, C797S/L858R/T790M).
T2 construct: generated using CRISPR technology to introduce the additional C797S mutation by Horizon Discovery; host or cells: NCI-H1975+CS (CRISPR knock-in of C797S)
T2 sequence (P00533 25-1210 T790M/C797S/L858R): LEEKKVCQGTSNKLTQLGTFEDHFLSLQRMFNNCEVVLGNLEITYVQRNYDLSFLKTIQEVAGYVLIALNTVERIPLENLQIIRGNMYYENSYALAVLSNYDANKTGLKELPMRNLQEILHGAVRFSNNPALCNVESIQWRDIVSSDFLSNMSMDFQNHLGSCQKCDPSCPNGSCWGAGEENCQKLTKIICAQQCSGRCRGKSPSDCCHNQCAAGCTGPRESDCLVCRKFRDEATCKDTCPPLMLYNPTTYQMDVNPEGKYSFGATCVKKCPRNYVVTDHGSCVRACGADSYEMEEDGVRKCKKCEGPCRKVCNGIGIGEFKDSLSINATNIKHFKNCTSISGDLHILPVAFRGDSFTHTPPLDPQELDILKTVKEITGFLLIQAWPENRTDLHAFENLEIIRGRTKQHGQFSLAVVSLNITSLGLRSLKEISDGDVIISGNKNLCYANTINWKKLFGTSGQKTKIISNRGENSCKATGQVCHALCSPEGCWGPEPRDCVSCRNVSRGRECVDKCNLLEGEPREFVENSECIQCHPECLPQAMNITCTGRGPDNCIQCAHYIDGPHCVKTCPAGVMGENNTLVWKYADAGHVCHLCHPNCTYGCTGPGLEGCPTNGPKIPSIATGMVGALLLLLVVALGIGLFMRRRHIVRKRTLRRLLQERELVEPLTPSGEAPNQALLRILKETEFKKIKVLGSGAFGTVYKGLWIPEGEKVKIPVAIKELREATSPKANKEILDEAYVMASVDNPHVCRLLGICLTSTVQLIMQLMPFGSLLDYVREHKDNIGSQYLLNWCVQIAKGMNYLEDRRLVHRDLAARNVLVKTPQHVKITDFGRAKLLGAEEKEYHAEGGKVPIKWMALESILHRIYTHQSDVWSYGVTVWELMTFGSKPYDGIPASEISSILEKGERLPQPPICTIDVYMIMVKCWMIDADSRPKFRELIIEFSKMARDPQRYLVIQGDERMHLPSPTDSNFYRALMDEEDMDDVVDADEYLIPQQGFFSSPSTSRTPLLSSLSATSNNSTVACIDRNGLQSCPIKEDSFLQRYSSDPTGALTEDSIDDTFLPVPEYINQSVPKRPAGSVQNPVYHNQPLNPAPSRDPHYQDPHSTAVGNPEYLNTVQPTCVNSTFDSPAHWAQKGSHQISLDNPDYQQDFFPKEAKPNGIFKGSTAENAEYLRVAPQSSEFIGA
Description: EGFR degradation, Total EGFR (L858R-specific) HTRF, NCI-H1975+CS. To be noted: Table 9B; NCI-H1975 C797S clone, 6 hours, Total EGFR HTRF; read-out: H1975 C797S clone EGFR DC50. The text has this:
NCI-H1975 (harboring EGFR heterozygous L858R-T790M mutations) and NCI-H3255 (harboring EGFR heterozygous L858R mutation) were purchased from ATCC and NCI, respectively. NCI-H1975+CS (harboring EGFR heterozygous L858R-T790M-C797S mutations) was generated using CRISPR technology to introduce the additional C797S mutation by Horizon Discovery. A431 (harboring EGFR wildtype) was purchased from ATCC. RPMI 1640 no-phenol red medium and fetal bovine serum (FBS) were purchased from Gibco (Grand Island, NY, USA). Cell culture flasks and 384-well microplates were acquired from VWR (Radnor, PA, USA). Phosphorylated (pY1068) EGFR and Total EGFR (using L858R-specific detection antibody and pan-EGFR antibody for EGFR mutant cell lines and EGFR wild-type cell lines, respectively) HTRF assay kits were purchased from Cisbio (Bedford, MA, USA).
Degradation of EGFR protein containing L858R mutation or wild-type was determined based on quantification of FRET signal using a Total EGFR (L858R-specific or pan-EGFR detecting) HTRF assay kit. Phospho-EGFR (pEGFR) inhibition was determined based on quantification of FRET signal using a pY1068 EGFR HTRF assay kit. In separate assay plates, test compounds were added to the 384-well plate from a top concentration of 10 μM with 11 points, half log titration in duplicates. For each assay, 12.5 uL of cells suspended in assay media (RPMI 1640 no-phenol red medium+10% FBS) at cell densities indicated for each cell line in Table 8 below were dispensed using a multi-channel pipette to 384-well low volume white HTRF microplates containing a duplicate concentration range of test compounds and DMSO controls. The plates were kept at 37° C. with 5% CO2 for 6 hours and then incubated with either phospho EGFR or Total EGFR HTRF detection antibodies according to the cell line and EGFR mutant being assayed. Cells treated in the absence of the test compound were the negative control. Positive control was set by wells containing all reagents but no cells. FRET signal was acquired on EnVision™ Multilabel Reader (PerkinElmer, Santa Clara, CA, USA). Compound concentration that achieves 50% degradation and inhibition was reported as DC50 and IC50, respectively.

In assay [3] the target is EGFR L858R (Homo sapiens, UniProt P00533, L858R). Description: EGFR degradation, Total EGFR (L858R-specific) HTRF, NCI-H3255. On the set-up: NCI-H3255 (harboring EGFR heterozygous L858R mutation); host or cells: NCI-H3255. To be noted: Table 9B; NCI-H3255 cells, 6 hours, Total EGFR HTRF; read-out: H3255 EGFR DC50. Put shortly: as §1
Sequence of EGFR L858R (P00533 25-1210 L858R): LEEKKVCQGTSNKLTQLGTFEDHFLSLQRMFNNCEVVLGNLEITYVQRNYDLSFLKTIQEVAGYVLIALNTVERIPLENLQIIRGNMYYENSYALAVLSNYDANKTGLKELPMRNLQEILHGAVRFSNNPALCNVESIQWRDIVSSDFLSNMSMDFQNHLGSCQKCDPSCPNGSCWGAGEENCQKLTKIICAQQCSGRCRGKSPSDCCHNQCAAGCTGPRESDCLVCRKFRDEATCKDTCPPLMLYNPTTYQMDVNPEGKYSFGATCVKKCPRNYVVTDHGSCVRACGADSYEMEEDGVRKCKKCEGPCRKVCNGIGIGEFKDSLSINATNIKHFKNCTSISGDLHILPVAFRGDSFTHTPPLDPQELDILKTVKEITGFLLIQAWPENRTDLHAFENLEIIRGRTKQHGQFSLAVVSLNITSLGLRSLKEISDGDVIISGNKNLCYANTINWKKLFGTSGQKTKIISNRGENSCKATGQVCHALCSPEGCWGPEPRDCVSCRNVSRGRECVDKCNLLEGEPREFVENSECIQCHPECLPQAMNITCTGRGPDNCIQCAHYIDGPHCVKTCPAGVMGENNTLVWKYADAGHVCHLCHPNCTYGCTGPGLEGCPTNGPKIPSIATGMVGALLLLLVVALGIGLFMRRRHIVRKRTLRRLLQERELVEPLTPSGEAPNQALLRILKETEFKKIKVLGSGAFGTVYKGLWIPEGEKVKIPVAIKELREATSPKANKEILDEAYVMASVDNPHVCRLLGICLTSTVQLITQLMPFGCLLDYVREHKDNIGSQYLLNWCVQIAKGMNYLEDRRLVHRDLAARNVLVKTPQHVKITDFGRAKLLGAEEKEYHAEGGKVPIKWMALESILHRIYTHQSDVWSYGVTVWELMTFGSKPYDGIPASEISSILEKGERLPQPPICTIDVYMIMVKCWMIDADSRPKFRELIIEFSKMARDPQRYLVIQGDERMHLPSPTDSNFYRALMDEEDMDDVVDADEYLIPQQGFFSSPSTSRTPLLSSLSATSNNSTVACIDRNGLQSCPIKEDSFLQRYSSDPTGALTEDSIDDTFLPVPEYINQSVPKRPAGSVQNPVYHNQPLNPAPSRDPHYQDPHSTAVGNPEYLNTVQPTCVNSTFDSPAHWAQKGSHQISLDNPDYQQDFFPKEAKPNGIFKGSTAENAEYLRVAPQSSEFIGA

T1 sequence (P00533 25-1210 T790M/L858R): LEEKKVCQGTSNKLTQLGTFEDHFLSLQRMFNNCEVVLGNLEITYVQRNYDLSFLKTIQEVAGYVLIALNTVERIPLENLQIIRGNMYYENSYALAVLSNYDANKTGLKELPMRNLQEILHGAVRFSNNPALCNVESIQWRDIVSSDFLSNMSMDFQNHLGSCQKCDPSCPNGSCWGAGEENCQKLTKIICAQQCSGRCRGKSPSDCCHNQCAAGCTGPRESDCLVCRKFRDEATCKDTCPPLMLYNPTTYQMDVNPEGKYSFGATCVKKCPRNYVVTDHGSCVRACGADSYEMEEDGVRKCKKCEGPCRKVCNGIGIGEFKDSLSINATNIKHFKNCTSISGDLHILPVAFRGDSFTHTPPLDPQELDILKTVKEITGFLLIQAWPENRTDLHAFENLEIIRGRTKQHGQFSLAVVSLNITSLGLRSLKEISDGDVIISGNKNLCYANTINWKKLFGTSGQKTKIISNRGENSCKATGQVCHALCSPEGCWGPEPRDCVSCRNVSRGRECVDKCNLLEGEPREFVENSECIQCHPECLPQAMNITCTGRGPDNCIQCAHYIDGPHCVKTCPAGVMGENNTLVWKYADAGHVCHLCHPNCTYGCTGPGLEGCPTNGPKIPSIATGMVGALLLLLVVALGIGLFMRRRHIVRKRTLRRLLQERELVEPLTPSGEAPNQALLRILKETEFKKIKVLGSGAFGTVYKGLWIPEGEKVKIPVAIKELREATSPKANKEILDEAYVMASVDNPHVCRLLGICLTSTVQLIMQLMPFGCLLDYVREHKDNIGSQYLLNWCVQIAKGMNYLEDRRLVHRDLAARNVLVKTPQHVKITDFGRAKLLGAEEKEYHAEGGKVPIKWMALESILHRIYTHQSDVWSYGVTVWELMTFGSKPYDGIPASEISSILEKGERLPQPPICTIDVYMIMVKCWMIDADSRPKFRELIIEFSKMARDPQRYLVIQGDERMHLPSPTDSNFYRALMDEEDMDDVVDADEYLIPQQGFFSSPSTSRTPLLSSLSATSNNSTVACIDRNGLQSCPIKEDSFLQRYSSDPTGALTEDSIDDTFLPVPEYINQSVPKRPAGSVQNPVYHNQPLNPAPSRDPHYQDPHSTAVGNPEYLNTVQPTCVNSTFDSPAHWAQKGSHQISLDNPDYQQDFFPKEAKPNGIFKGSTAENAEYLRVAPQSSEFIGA

In general, DC50 refers to the midpoint of the concentration-degradation curve. `O=C1CC[C@H](Nc2ccc(C3CCN(CC(=O)N4CC5(C4)CN(c4ccc(-c6ccc7cn(C(C(=O)Nc8nccs8)c8ncn9c8CCC9)nc7c6F)cn4)C5)CC3)c(F)c2)C(=O)N1` (stereo partly drawn) [Compound 69, 2-(6,7-dihydro-5H-pyrrolo[1,2-c]imidazol-1-yl)-2-[6-[6-[2-[2-[4-[4-[[(3S)-2,6-dioxo-3-piperidyl]amino]-2-fluoro-phenyl]-1-piperidyl]acetyl]-2,6-diazaspiro[3.3]heptan-6-yl]-3-pyridyl]-7-fluoro-indazol-2-yl]-N-thiazol-2-yl-acetamide]: the DC50 in assay [1] and in assay [2] was below 50 nM in each case.

With `Cn1nc(N2CCC(=O)NC2=O)c2ccc(C3CCN(CC(=O)N4CC5(C4)CN(c4ccc(-c6ccc7cn(C(C(=O)Nc8nccs8)c8ncn9c8CCC9)nc7c6F)cn4)C5)CC3(F)F)cc21` (stereo not shown) [Compound 70, 2-(6,7-dihydro-5H-pyrrolo[1,2-c]imidazol-1-yl)-2-[6-[6-[2-[2-[4-[3-(2,4-dioxohexahydropyrimidin-1-yl)-1-methyl-indazol-6-yl]-3,3-difluoro-1-piperidyl]acetyl]-2,6-diazaspiro[3.3]heptan-6-yl]-3-pyridyl]-7-fluoro-indazol-2-yl]-N-thiazol-2-yl-acetamide], the 50% degradation concentration (DC50) in assay [1] and in assay [2] was below 50 nM each time. For the compound `Cn1nc(N2CCC(=O)NC2=O)c2ccc(C3CCN(CC(=O)N4CC5(C4)CN(c4ccc(-c6cc(F)c7c(c6)C(=O)N(C(C(=O)Nc6nccs6)c6ncn8c6CCC8)C7)cn4)C5)CC3(F)F)cc21` (stereo not shown) [Compound 87, 2-(6,7-dihydro-5H-pyrrolo[1,2-c]imidazol-1-yl)-2-(6-(6-(6-(2-(4-(3-(2,4-dioxotetrahydropyrimidin-1(2H)-yl)-1-methyl-1H-indazol-6-yl)-3,3-difluoropiperidin-1-yl)acetyl)-2,6-diazaspiro[3.3]heptan-2-yl)pyridin-3-yl)-4-fluoro-1-oxoisoindolin-2-yl)-N-(thiazol-2-yl)acetamide], the 50% degradation concentration (DC50) in assay [1] and in assay [2] was below 50 nM throughout. As to `Cn1nc(N2CCC(=O)NC2=O)c2ccc(C3CCN(CC(=O)N4CCC(NC(=O)c5ccc(C#Cc6cc(F)c7c(c6)C(=O)N(C(C(=O)Nc6nccs6)c6ncn8c6CCC8)C7)cn5)CC4)CC3(F)F)cc21` (stereo not shown) [Compound 88, 5-[2-[2-[1-(6,7-dihydro-5H-pyrrolo[1,2-c]imidazol-1-yl)-2-oxo-2-(thiazol-2-ylamino)ethyl]-7-fluoro-3-oxo-isoindolin-5-yl]ethynyl]-N-[1-[2-[4-[3-(2,4-dioxohexahydropyrimidin-1-yl)-1-methyl-indazol-6-yl]-3,3-difluoro-1-piperidyl]acetyl]-4-piperidyl]pyridine-2-carboxamide], the half-maximal degradation concentration (DC50) in assay [1] and in assay [2] was below 50 nM in each case. As for `Cn1nc(N2CCC(=O)NC2=O)c2ccc(C3CCN(CC(=O)N4CCCN(c5ccc(-c6cc(F)c7c(c6)C(=O)N(C(C(=O)Nc6nccs6)c6ncn8c6CCC8)C7)cc5)CC4)CC3(F)F)cc21` (stereo not shown) [Compound 91, 2-(6,7-dihydro-5H-pyrrolo[1,2-c]imidazol-1-yl)-2-(6-(4-(4-(2-(4-(3-(2,4-dioxotetrahydropyrimidin-1(2H)-yl)-1-methyl-1H-indazol-6-yl)-3,3-difluoropiperidin-1-yl)acetyl)-1,4-diazepan-1-yl)phenyl)-4-fluoro-1-oxoisoindolin-2-yl)-N-(thiazol-2-yl)acetamide], the half-maximal degradation concentration (DC50) is below 50 nM in assay [1] and 50 to 150 nM in assay [2].

In the case of `Cn1nc(N2CCC(=O)NC2=O)c2ccc(N3CCN(CC(=O)N4CCN(c5ccc(-c6cc(F)c7c(c6)C(=O)N(C(C(=O)Nc6nccs6)c6ncn8c6CCC8)C7)cc5)CC4)CC3)cc21` (stereo not shown) [Compound 92, 2-(6,7-dihydro-5H-pyrrolo[1,2-c]imidazol-1-yl)-2-(6-(4-(4-(2-(4-(3-(2,4-dioxotetrahydropyrimidin-1(2H)-yl)-1-methyl-1H-indazol-6-yl)piperazin-1-yl)acetyl)piperazin-1-yl)phenyl)-4-fluoro-1-oxoisoindolin-2-yl)-N-(thiazol-2-yl)acetamide], the half-maximal degradation concentration (DC50) in assay [1] and in assay [2] was below 50 nM each time. Regarding `O=C1CCN(c2ccc(N3CCC(O)(CC(=O)N4CC5(C4)CN(c4ccc(-c6cc(F)c7cn(C(C(=O)Nc8nccs8)c8ncn9c8CCC9)nc7c6)cc4)C5)CC3)c(F)c2)C(=O)N1` (stereo not shown) [Compound 147], the DC50 in assay [2] is below 50 nM.

Turning to `C[C@@H]1CC(O)(CC(=O)N2CC3(C2)CN(c2ccc(-c4cc(F)c5cn(C(C(=O)Nc6nccs6)c6ncn7c6CCC7)nc5c4)cc2)C3)C[C@H](C)N1c1ccc(NC2CCC(=O)NC2=O)cc1F` (stereo partly shown) [Compound 148, 2-(6,7-dihydro-5H-pyrrolo[1,2-c]imidazol-1-yl)-2-[6-[4-[2-[2-[(2s,6r)-1-[4-[(2,6-dioxo-3-piperidyl)amino]-2-fluoro-phenyl]-4-hydroxy-2,6-dimethyl-4-piperidyl]acetyl]-2,6-diazaspiro[3.3]heptan-6-yl]phenyl]-4-fluoro-indazol-2-yl]-N-thiazol-2-yl-acetamide], the DC50 in assay [2] was below 50 nM. `O=C1CC[C@H](Nc2ccc(C3CCN(C(=O)CC4(O)CCN(c5ccc(-c6ccc7cn(C(C(=O)Nc8nccs8)c8ncn9c8CCC9)nc7c6F)cc5)CC4)CC3)c(F)c2)C(=O)N1` (stereo partly drawn) [Compound 149, 2-(6,7-dihydro-5H-pyrrolo[1,2-c]imidazol-1-yl)-2-[6-[4-[4-[2-[4-[4-[[(3S)-2,6-dioxo-3-piperidyl]amino]-2-fluoro-phenyl]-1-piperidyl]-2-oxo-ethyl]-4-hydroxy-1-piperidyl]phenyl]-7-fluoro-indazol-2-yl]-N-thiazol-2-yl-acetamide]: the DC50 in assay [2] is below 50 nM. As to `O=C1CC[C@H](Nc2ccc(C3CCN(C(=O)CC4(O)CCN(c5ccc(-c6cc(F)c7cn(C(C(=O)Nc8nccs8)c8ncn9c8CCC9)nc7c6)cn5)CC4)CC3)c(F)c2)C(=O)N1` (stereo partly drawn) [Compound 150, 2-(6,7-dihydro-5H-pyrrolo[1,2-c]imidazol-1-yl)-2-[6-[6-[4-[2-[4-[4-[[(3S)-2,6-dioxo-3-piperidyl]amino]-2-fluoro-phenyl]-1-piperidyl]-2-oxo-ethyl]-4-hydroxy-1-piperidyl]-3-pyridyl]-4-fluoro-indazol-2-yl]-N-thiazol-2-yl-acetamide], the half-maximal degradation concentration (DC50) in assay [2] is below 50 nM. As to `O=C1CC[C@H](Nc2ccc(C3CCN(C(=O)CC4(O)CCN(c5ccc(-c6ccc7cn(C(C(=O)Nc8nccs8)c8ncn9c8CCC9)nc7c6F)cn5)CC4)CC3)c(F)c2)C(=O)N1` (stereo partly drawn) [Compound 151, 2-(6,7-dihydro-5H-pyrrolo[1,2-c]imidazol-1-yl)-2-[6-[6-[4-[2-[4-[4-[[(3S)-2,6-dioxo-3-piperidyl]amino]-2-fluoro-phenyl]-1-piperidyl]-2-oxo-ethyl]-4-hydroxy-1-piperidyl]-3-pyridyl]-7-fluoro-indazol-2-yl]-N-thiazol-2-yl-acetamide], in assay [2], the DC50 was below 50 nM. In the case of `O=C1CCC(Nc2ccc(C3CCN(CC(=O)N4CCN(c5ccc(-c6cc(F)c7c(c6)C(=O)N(C(C(=O)Nc6nccs6)c6ncn8c6CCC8)C7)cc5)CC4)CC3)c(F)c2)C(=O)N1` (stereo not shown) [Compound 180, 2-(6,7-dihydro-5H-pyrrolo[1,2-c]imidazol-1-yl)-2-[6-[4-[4-[2-[4-[4-[(2,6-dioxo-3-piperidyl)amino]-2-fluoro-phenyl]-1-piperidyl]acetyl]piperazin-1-yl]phenyl]-4-fluoro-1-oxo-isoindolin-2-yl]-N-thiazol-2-yl-acetamide], the DC50 in assay [1] and in assay [3] was below 50 nM in each case.
